Assay results taken from patent publication US6953814B2, “Natural insect repellant” (Stratacor, Inc., priority 1997, dated 2005).
Where two headings read alike, the source gives them in different places. Blank lines part the entries; values can stand above or below the molecule they belong to.

Assays:
Aedes aegypti mosquitoes [1] = conditions: 0.31 mg/cm^2; cited from earlier work
Aedes aegypti mosquitoes [2] = experiment: Mosquito repellency on gauze or polyester film (olfactometer); assay type: in vivo; conditions: Aedes aegypti, 0.05 h, cotton gauze or polyester film, 0.3 mg/cm^2, 3 minutes after application; read-out: Percent Repellency
Excerpt: Olfactometer: A Fiensod and […] olfactometer, as modified by Bowen and Davis, measured the host-oriented flight response of female mosquitoes to volatile host emanations (Feinsod, F. M., and […]; An olfactometer for measuring host-seeking behavior of female Aedes aegypti (Diptera: Culicidae); J. Med. Entomol., 15: 282-285, 1979). The olfactometer (approximately 38 cm high) consisted of an upper and lower screened chamber with a closure between the chambers (FIG. 8). A fan placed above the upper chamber drew air through the apparatus at approximately 0.2 m/s. A temperature and humidity controlled chamber (5' wide by 6' long by 8' high) was constructed to house the test subject and the olfactometer. Rearing of Mosquitoes: A second environmental chamber, maintained at 27° C. and 80% humidity, was dedicated to the rearing of Aedes aegypti mosquitoes. […] Assays for Attraction of Mosquitoes to Human Subjects: A group of 30 volunteers, consisting of 14 females and 16 males and ranging in age from 24 to 68 years, was selected from the surrounding civilian population. Individuals were tested for their ability to attract Aedes aegypti mosquitoes contained in the olfactometer. Tests were conducted at a temperature of 27° C. and 50% relative humidity. […] A small fan was placed on top of the upper chamber to cause an air flow from the lower chamber to the upper chamber. A trial began when the closure between the upper and lower chamber was opened in the absence of a human host. […] This trial was repeated twice during a test session to obtain three replicates. Two additional test sessions, at time intervals of at least 1 week, were conducted to obtain at least 8-9 replicates for each of 24 subjects. Of the remaining 6 subjects, 3 were tested on two separate occasions for a total of 6 replicates per subject; 3 were tested on one occasion for a total of 3 replicates per subject. A total of 254 tests were conducted. Test compounds were dissolved in acetone or ethanol at a concentration of 150 mg/5 cc. Ethanol solutions of carboxylic acids were prepared just prior to use. Five hundred microliters of these solutions were applied to a 50 cm^2 circular area of a single layer of cotton gauze (Curity Curad gauze, Futuro Inc., Milford, Ohio) or nonwoven polyester film ([…], Inc.). The resultant dose was 0.3 mg/cm^2. […] The cup was attached to the bottom of the olfactometer (FIG. 8) so that air flowed through the stainless steel screen of the cup, through the treated gauze or film, and through the olfactometer. A volunteer's forearm was placed under the cup, so that air drawn into the cup and olfactometer was laden with human skin emanations. Tests were conducted as described in the preceding paragraph, “Assays for attraction of mosquitoes to human subjects”. Percent repellency was determined from the fraction of mosquitoes entering the lower chamber over a seven minute period. This assay is an approximate measure of the intrinsic repellency of a compound. Good repellency in this test is a necessary, but not sufficient, condition for good repellency on skin. Mosquito repellents must produce a vapor over the skin surface to confuse the host seeking behavior of the insect. However, volatilization must not be so great that the repellent action rapidly dissipates. Since volatilization from the skin will be different from an inanimate surface, skin tests are necessary to confirm that a compound will be a practical repellent.

Aedes aegypti mosquitoes [3] = experiment: Mosquito repellency on skin (olfactometer, human forearm); assay type: in vivo; conditions: for repellency immediately after application to skin, compared to DEET: FIG. 4; for Percent Repellency 2 h: 0.3 mg/cm^2, 2 h after application; for Percent Repellency 4 h: 0.3 mg/cm^2, 4 h after application
Excerpt: Olfactometer: A Fiensod and Spielman olfactometer, as modified by Bowen and Davis, measured the host-oriented flight response of female mosquitoes to volatile host emanations (Feinsod, F. M., and A. Spielman; An olfactometer for measuring host-seeking behavior of female Aedes aegypti (Diptera: Culicidae); J. Med. Entomol., 15: 282-285, 1979). The olfactometer (approximately 38 cm high) consisted of an upper and lower screened chamber with a closure between the chambers (FIG. 8). A fan placed above the upper chamber drew air through the apparatus at approximately 0.2 m/s. A temperature and humidity controlled chamber (5′ wide by 6′ long by 8′ high) was constructed to house the test subject and the olfactometer.
Rearing of Mosquitoes: A second environmental chamber, maintained at 27° C. and 80% humidity, was dedicated to the rearing of Aedes aegypti mosquitoes. Routine shipments of eggs (American Biological Supply, Gainesville, Fla.) were used to maintain a continuous supply of adult 5-10 day old mosquitoes.
Assays for Attraction of Mosquitoes to Human Subjects: A group of 30 volunteers, consisting of 14 females and 16 males and ranging in age from 24 to 68 years, was selected from the surrounding civilian population. Individuals were tested for their ability to attract Aedes aegypti mosquitoes contained in the olfactometer. Tests were conducted at a temperature of 27° C. and 50% relative humidity. For each trial 15 avid adult female Aedes aegypti mosquitoes (5-10 days post-emergence) were placed in the upper chamber. A small fan was placed on top of the upper chamber to cause an air flow from the lower chamber to the upper chamber. A trial began when the closure between the upper and lower chamber was opened in the absence of a human host. The number of mosquitoes entering the lower chamber within a 3 minute period was recorded. The volunteer then placed his or her arm beneath the lower chamber and the number of mosquitoes flying from the upper chamber to the lower chamber was recorded for the time intervals 0-1, 1-3, 3-5 and 5-7 minutes. This trial was repeated twice during a test session to obtain three replicates. Two additional test sessions, at time intervals of at least 1 week, were conducted to obtain at least 8-9 replicates for each of 24 subjects. Of the remaining 6 subjects, 3 were tested on two separate occasions for a total of 6 replicates per subject; 3 were tested on one occasion for a total of 3 replicates per subject. A total of 254 tests were conducted.
Test compounds were dissolved in acetone or ethanol at a concentration of 300 mg/5 cc. Ethanol solutions of carboxylic acids were prepared just prior to use. Three hundred and fifty microliters of these solutions were applied to a 70 cm^2 rectangular area of the forearm. The resultant dose was 0.3 mg/cm^2. The repellent treated area was allowed to dry for 5 minutes prior to test. The treated skin area was placed under the olfactometer and tests were conducted as described in the preceding paragraph, “Assays for attraction of mosquitoes to human subjects”. Percent repellency was determined from the fraction of mosquitoes entering the lower chamber over a seven minute period.
A commercial formulation of DEET (Skintastic, S. C. Johnson, Racine,) was applied to a 100 cm^2 area on the forearm of 1 volunteer (subject 02) to give a dose of 0.3 mg/cm^2 of DEET. A formulation of C8C9C10 (5% octanoic, 5% nonanoic, 5% decanoic in Dow Corning 345 volatile silicone fluid) was applied to a 100 cm^2 on the subject's other arm to give a dose of 0.3 mg/cm^2 total acids. Application sites were placed under the olfactometer at 1, 2 and 4 hours after treatment. Untreated areas on each arm were placed under the olfactometer at the completion of the treated area tests to check the avidity of the mosquitoes. Tests were done on four separate test days. […]

Vapor pressure = assay type: physicochemical; conditions: for Vol. (vapor pressure), (est): at 125° C., estimated or extrapolated from literature values
Aedes aegypti mosquitoes [4] = experiment: Mosquito repellency on skin (olfactometer, human forearm); assay type: in vivo; conditions: on skin
Aedes aegypti [5] = conditions: 0.5 mg/cm^2 on the skin of man; cited from earlier work
Aedes aegypti [6] = conditions: King 1954; cited from earlier work
[7] = rabbit, in vivo; cited from earlier work
[8] = cited from earlier work
[9] = cited from earlier work; remark: listed apart in the source
[10] = system: yellow fever mosquito (Aedes aegypti (L.)); conditions: human skin, approximately 2 mg/cm^2, time until two bites; DEET from Gilbert 1957; cited from earlier work
[11] = system: malaria mosquito (Anopheles quadrimaculatus Say); conditions: human skin, approximately 2 mg/cm^2, time until two bites; cited from earlier work
mosquitoes = conditions: Hill et al. 1979; cited from earlier work

Structure (SMILES): CCCCCCCC/C=C\CCCCCCCC(=O)O [Oleic Acid]
Protection time against Aedes aegypti mosquitoes (Aedes aegypti mosquitoes [1]): <15 min

Vol. (vapor pressure), (est) (Vapor pressure): 6 (est) mm Hg
Structure (SMILES): CCCCCC(C)=CC(=O)O [3-Methyl-2-octenoic acid]
pest or weed control at 0.3 mg/cm2 (Aedes aegypti mosquitoes [2]): 95%
repellency immediately after application to skin, compared to DEET (Aedes aegypti mosquitoes [3]): less repellent
Percent Repellency 2 h (Aedes aegypti mosquitoes [3]; on skin): 40 ± 5 (3) %
Percent Repellency 4 h (Aedes aegypti mosquitoes [3]; on skin): 47 ± 21%
Percent Repellency 8 h (Aedes aegypti mosquitoes [3]; on skin, 0.3 mg/cm^2, 8 h after application): 60%
Percent Repellency 2 h (Aedes aegypti mosquitoes [4]; 0.6 mg/cm^2, 2 h after application): 73% (1)
Percent Repellency 4 h (Aedes aegypti mosquitoes [4]; 0.6 mg/cm^2, 4 h after application): 40 (1) %

Structure (SMILES): CCCCCCCCCC=CC(=O)O [2-Dodecenoic Acid]
Protection time against Aedes aegypti mosquitoes (Aedes aegypti mosquitoes [1]): 120 min

Structure (SMILES): O=C1CCCCN1 [Valerolactam]
pest or weed control at 0.3 mg/cm2 (Aedes aegypti mosquitoes [2]): 20%

Vol. (vapor pressure), (est) (Vapor pressure): 2.4 (est) mm Hg
Structure (SMILES): CCCCCCCC=CC(=O)O [2-Decenoic acid]
Protection Time (Aedes aegypti [5]): 6 ± 4 h
Protection time against Aedes aegypti mosquitoes (Aedes aegypti mosquitoes [1]): <15 min

Vol. (vapor pressure), (est) (Vapor pressure): 49.5 mm Hg
Structure (SMILES): CCC(C)=CC(=O)O [3-Methyl-2-pentenoic acid, 3-Methyl-2-pentenoic Acid]
pest or weed control at 0.3 mg/cm2 (Aedes aegypti mosquitoes [2]): 65%

Structure (SMILES): CC(C)OC(=O)CCCCC(=O)OC(C)C [diisopropyl adipate]
repellent to Aedes aegypti (Aedes aegypti [6]): repellent

Structure (SMILES): CCCCCCC=CC(=O)O [2-Nonenoic Acid]
Protection time against Aedes aegypti mosquitoes (Aedes aegypti mosquitoes [1]): 120 min

Vol. (vapor pressure), (est) (Vapor pressure): 0.57 mm Hg
Structure (SMILES): CCCCCCCCCCCC(=O)O [Dodecanoic acid]

Structure (SMILES): CCCCCCCC(=O)O [Octanoic acid]
pest or weed control at 0.3 mg/cm2 (Aedes aegypti mosquitoes [2]): 87 ± 1%
repellency immediately after application to skin, compared to DEET (Aedes aegypti mosquitoes [3]): comparable to DEET
Percent Repellency 2 h (Aedes aegypti mosquitoes [3]; on skin): 36 (1) %
Percent Repellency 2 h (Aedes aegypti mosquitoes [3]; on skin, listed as octanoic acid): 36%
Skin irritation [7]: moderate to severe irritation
Irritation or sensitization reactions ([8]; 1% in petrolatum, skin of human subjects): no irritation or sensitization reactions
Erythema ([9]; repeated applications of 0.5 M propanol solutions, occlusive, human males): Erythema was observed

Structure (SMILES): CCCCCCCCC(=O)O [Nonanoic acid]
pest or weed control at 0.3 mg/cm2 (Aedes aegypti mosquitoes [2]): 93 to 100%
repellency two hours after skin application, ranking (Aedes aegypti mosquitoes [3]; FIG. 5): highest repellency
Percent Repellency 2 h (Aedes aegypti mosquitoes [3]; on skin): 66 (1) %
Percent Repellency 4 h (Aedes aegypti mosquitoes [3]; on skin): 47 (1) %
Protection time against yellow fever mosquitoes [10]: 180+ min.
Protection time against malaria mosquitoes [11]: 31 to 60 min
Skin irritation [7]: moderate irritation
Irritation or sensitization reactions ([8]; in vivo): no irritation or sensitization reactions
Erythema ([9]; in vivo): Erythema was observed

Structure (SMILES): CCCCCCCCCCC(=O)O [Undecanoic acid]
pest or weed control at 0.3 mg/cm2 (Aedes aegypti mosquitoes [2]): 93 to 100%
Vol. (vapor pressure), (est) (Vapor pressure): 1.5 (est) mm Hg
Protection time against yellow fever mosquitoes [10]: 300+ min.
Protection time against malaria mosquitoes [11]: 90+ min.

Vol. (vapor pressure), (est) (Vapor pressure): 10.8 mm Hg
Structure (SMILES): CCCCCC=CC(=O)O [2-Octenoic acid, 2-Octenoic Acid]
pest or weed control at 0.3 mg/cm2 (Aedes aegypti mosquitoes [2]): 97 ± 5%
repellency immediately after application to skin, compared to DEET (Aedes aegypti mosquitoes [3]): less repellent
Percent Repellency 2 h (Aedes aegypti mosquitoes [3]; on skin): 29 (1) %
Percent Repellency 4 h (Aedes aegypti mosquitoes [3]; on skin): 27 (1) %

Structure (SMILES): C=CCCCCCCCCC(=O)O [Undecylenic Acid]
Protection time against Aedes aegypti mosquitoes (Aedes aegypti mosquitoes [1]): 210 min

Structure (SMILES): CCCCC/C=C\C/C=C\C/C=C\C/C=C\CCCC(=O)O [Arachidonic Acid]
Protection time against Aedes aegypti mosquitoes (Aedes aegypti mosquitoes [1]): <15 min

Vol. (vapor pressure), (est) (Vapor pressure): 49.5 mm Hg
Structure (SMILES): CCC(C)CC(=O)O (centres unmarked) [3-Methylpentanoic Acid]
pest or weed control at 0.3 mg/cm2 (Aedes aegypti mosquitoes [2]): 43 ± 14%

Structure (SMILES): CCCCCCCCCC(=O)O [Decanoic acid]
pest or weed control at 0.3 mg/cm2 (Aedes aegypti mosquitoes [2]): 93 to 100%
Percent Repellency 2 h (Aedes aegypti mosquitoes [3]; on skin): 53 (1) %
Percent Repellency 4 h (Aedes aegypti mosquitoes [3]; on skin): 73 (1) %
Protection time against yellow fever mosquitoes [10]: 300+ min.
Protection time against malaria mosquitoes [11]: 61 to 90 min
Skin irritation [7]: moderate to severe irritation

Structure (SMILES): CCCCCCC(=O)O [Ethanthic, ethanthic acid, reference compound]
Protection time against yellow fever mosquitoes [10]: 121 to 180 min
Protection time against malaria mosquitoes [11]: 90+ min.

Structure (SMILES): O=C(c1ccccc1)c1ccccc1 [benzophenone]
repellent to Aedes aegypti (Aedes aegypti [6]): repellent

Vol. (vapor pressure), (est) (Vapor pressure): 92 mm Hg
Structure (SMILES): CCC=CC(=O)O [2-Pentenoic acid, 2-Pentenoic Acid]
pest or weed control at 0.3 mg/cm2 (Aedes aegypti mosquitoes [2]): 100%

volatility relative to DEET (Vapor pressure; from vapor pressures of Table 7): twice as volatile as DEET
Structure (SMILES): CCCC(O)C(CC)CO (centres unmarked) [2-Ethyl-1,3-hexanediol, reference compound]
protects against mosquitoes for (mosquitoes): 3 to 4 h

Structure (SMILES): CCCCC/C=C\C/C=C\CCCCCCCC(=O)O [Linoleic Acid]
Protection time against Aedes aegypti mosquitoes (Aedes aegypti mosquitoes [1]): <15 min
